The text below walks through data of patent US6528275B1, “Substrates and inhibitors of proteolytic enzymes” (Peptide Therapeutics Limited, priority 1996, dated 2003).

Non-standard residues stand in square brackets, D forms with d. Residues, ends and D or L forms follow the SMILES beside them. Tyr(3-NO2) = N[C@@H](Cc1ccc(O)c([N+](=O)[O-])c1)C(=O)O; 3Pal = N[C@@H](Cc1cccnc1)C(=O)O; hLeu = CC(C)CC[C@H](N)C(=O)O; 2Abz = Nc1ccccc1C(=O)O A value given as a limit tells only on which side of the number the result lay.

For this experiment, the target named is T1, Der pI (Dermatophagoides pteronyssinus, UniProt P08176).
T1 construct: tissue SmithKline-Beecham, U.K (crude mite extract); host or cells: crude house dust mite extract
T1 sequence (P08176 99-320): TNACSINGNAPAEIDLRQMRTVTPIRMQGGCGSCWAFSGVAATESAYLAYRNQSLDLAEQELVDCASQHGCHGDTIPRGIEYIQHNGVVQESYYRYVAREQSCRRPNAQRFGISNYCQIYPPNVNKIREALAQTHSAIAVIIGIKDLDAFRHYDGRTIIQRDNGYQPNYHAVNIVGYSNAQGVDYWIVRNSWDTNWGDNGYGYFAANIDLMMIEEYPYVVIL
The experiment is described as follows: Der pI substrate assay with FRET peptides (fluorescence, Km, kcat/Km). The conditions noted are these: purified Der pI; peptides SEQ ID Nos. 1-76; read-out: Measured Km. In kind it is biochemical, house dust mite. On the procedure:
Using the general techniques described above, the following compounds were prepared and assayed as potential substrates against Der pI purified as described above.
Each mixture of 20 compounds in the libraries of the apparatus described herein was screened at a concentration of 1.0 μM per compound in an assay against the cysteinyl protease Der pI.
Plate assays were carried out in 96 well plate format, using 0.1 ug of Der pI per 100 μL assay volume in each well and using 20 μM of the substrate. All assays were performed in Assay Buffer (AB; 50 mM potassium phosphate, pH 8.25 containing 1 mM ethylenediaminetetraacetic acid (EDTA) and 1 mM dithiothreitol (DTT). The Der pI enzyme is pre-activated by addition of DTT and this in incubated at room temperature for 5 min. prior to initiation of the assay. As an example for the screening methodology, each well contains a 5 μL of a 20 μM solution of the test compound in DMSO, 10 μL of a 200 μM aqueous solution of the substrate, 2, and 85 μL of Der pI in AB is added to initiate the reaction. Enzyme activity is monitored by fluorescence using 320 nm for excitation and 420 nm for the emission wavelengths using a Labsystems Fluroskan Ascent machine. Kinetic measurements were carried out using a Hitachi F-4500 Fluorescence Spectrophotometer.
The term Km denotes the substrate concentration at which the rate is half of its maximum. `CC(C)CC[C@H](NC(=O)[C@H](C)NC(=O)[C@H](Cc1cccnc1)NC(=O)c1ccccc1N)C(=O)N[C@@H](CO)C(=O)N[C@@H](Cc1ccc(O)c([N+](=O)[O-])c1)C(=O)N[C@@H](CC(=O)O)C(N)=O` [Abz-3pyr-Ala-hLeu-Ser-Tyr(NO2)-Asp-NH2] (H-[2Abz][3Pal]A[hLeu]S[Tyr(3-NO2)]D-NH2): the Michaelis constant (Km) is greater than 10 µM. Next, `CC(C)CC[C@H](NC(=O)[C@H](C)NC(=O)[C@H](CCCCN)NC(=O)c1ccccc1N)C(=O)N[C@@H](CO)C(=O)N[C@@H](Cc1ccc(O)c([N+](=O)[O-])c1)C(=O)N[C@@H](CC(=O)O)C(N)=O` [Abz-Lys-Ala-hLeu-Ser-Tyr(NO2)-Asp-NH2] (H-[2Abz]KA[hLeu]S[Tyr(3-NO2)]D-NH2): greater than 15 µM.

Take `CC(C)[C@H](NC(=O)c1ccccc1N)C(=O)N[C@@H](C)C(=O)N[C@@H](Cc1c[nH]cn1)C(=O)N[C@@H](CO)C(=O)N[C@@H](Cc1ccc(O)c([N+](=O)[O-])c1)C(=O)N[C@@H](CC(=O)O)C(N)=O` [Abz-Val-Ala-His-Ser-Tyr(NO2)-Asp-NH2] (H-[2Abz]VAHS[Tyr(3-NO2)]D-NH2): the Michaelis constant (Km) is greater than 20 µM. In the case of Abz-Bip-Ala-hLeu-Abu-Tyr(NO2)-Asp-NH2, the Michaelis constant (Km) turned out to be 1.7 µM.
